In a melting point compilation (Tetko et al.; mined from patent text by program, amines drawn as free bases though some values may be those of a salt):

Row | melting point | Compound
1 | 104 °C | O=C(O)C1(O)CCCN(Cc2ccccc2)C1 (stereo unspecified)
2 | 160 to 163 °C | CC1(O)CC(=O)OC(CCc2ccc(OCc3ccc(F)cc3)cc2)C1Br (stereo unspecified)
3 | 231 to 234 °C | CC1(C)CNC(=O)c2cc3nc(-c4ccncc4)[nH]c3cc21
4 | 124 °C | COC(=O)c1csc(-c2snnc2-c2ccccc2)n1
5 | 172 to 174 °C | Cn1cc([C@H]2CC[C@@H](N3CCN(c4cc(C=O)cc5cccnc45)CC3)CC2)c2cc(C#N)ccc21
6 | 186 to 190 °C | O=C(O)c1ccc(SC(Cn2ccnc2)c2ccccc2O)cc1 (stereo unspecified)
7 | 31.5 to 32.5 °C | CCCCCCCCCCC1COC(=O)N1 (stereo unspecified)
8 | 143 to 144 °C | CCC(O)c1nc(C)nc2c1c(C)c(C)n2-c1c(C)cc(C)cc1C (stereo unspecified)
9 | 96 to 97 °C | CCOC(=O)c1conc1-c1ccc(F)c(Br)c1
10 | 52 to 53.5 °C | CCN(CC)c1ccc(C(=O)OC)nc1
11 | 144 to 145 °C | Fc1ccc2c(CN3CCc4ccccc4C3)c[nH]c2c1
12 | 105 °C | CS(=O)(=O)OCC(CC1CCCCC1)c1ccc(Cl)cc1Cl (stereo unspecified)
13 | 239 to 240 °C | O=c1[nH]cnc2cccc(Br)c12
14 | 161 to 163 °C | O=C1C(=O)N(CC(F)(F)F)c2ccccc21
15 | 176 to 177 °C | O=C1NC(=O)C(CC#Cc2ccc(Cl)cc2)(S(=O)(=O)c2ccc(F)cc2)S1 (stereo unspecified)
16 | 228 °C | O=C(Nc1ccncc1)c1ccc(OC(F)F)c2oc3ccc(C(F)(F)F)cc3c12
17 | 98 to 99 °C | COc1ccc(CN2CCc3cc(OCc4ccccc4)c(OC)cc3C2)cc1OC
18 | 173 to 177 °C | N=C(NS(=O)(=O)C=Cc1ccc([N+](=O)[O-])cc1)c1ccc([N+](=O)[O-])cc1
19 | 242 °C | Cc1ccc(-c2cc(=S)ss2)nn1
20 | 133 to 134 °C | CC1(C)NC(SCc2ccccc2)=NC1=S
21 | 103 to 105 °C | Clc1ccc([C@@]2(Cn3ccnc3)OC[C@H](COc3ccc4c(c3)CCN(Cc3ccc(-c5ccccc5)cc3)C4)O2)c(Cl)c1 (racemic)
22 | 274 to 275 °C | CCC(=O)Nc1nc2c(s1)-c1nc(-c3ccccc3)ncc1CC2
23 | 150 to 155 °C | C=CC(=O)NCCNC(=O)C=C

Row | melting point | Compound
24 | 203 to 205 °C | CON=C(C)c1nc(-c2cccnc2)[nH]c1C
25 | 75 to 77 °C | CCCCCCCCCCCCOc1cc(O)c(C(=O)c2ccccc2)cc1Cl
26 | 134 to 136 °C | Nc1ccccc1Cc1nc[nH]n1
27 | 111 °C | N#Cc1ccc(C(=O)CC2C=COc3ccccc32)cc1 (stereo unspecified)
28 | 137 to 138 °C | COC(=O)COc1ccc(C(=O)CC2CCN(c3ccncc3)CC2)cc1
29 | 166 to 168 °C | CCc1cccc(CC)c1NC(=O)N(CC1CCCCC1)C1CCC(c2ccccc2)CC1 (stereo unspecified)
30 | 172 °C | CCOC(=O)CN(c1ccc(Cl)cc1)[C@H]1c2cc(C#N)ccc2OC(C)(C)[C@@H]1O
31 | > 260 °C | O=C(O)c1c(Cc2cc3c(cc2Cl)OCO3)c(-c2cccs2)nn1CC1CCCC(C(=O)O)C1 (stereo unspecified)
32 | 124 to 125 °C | CC(=O)c1sc(-c2ccc(-c3ccccc3)cc2)nc1C
33 | 195 °C | CCNC(CC)CCOc1ccc(-c2ccc(C(=O)O)cc2)cc1-c1ccc2c(c1)C(C)(C)CCC2(C)C (stereo unspecified)
34 | 145 to 150 °C | Fc1ccc(F)c(N=C2CCCc3cc4c(nc32)C(=Nc2c(F)cccc2F)CCC4)c1
35 | 130 to 131 °C | Sc1nccn1Cc1cccs1
36 | 162 to 163 °C | CCCCc1nc(Cl)c(CO)n1Cc1ccc(-c2cccc(C(=O)OC)c2)cc1
37 | 247 °C | Cc1ncc2c(c1O)COC2(C)C
38 | 140 to 142 °C | CCOC(=O)Cc1ccc(NC(=O)C(COc2ccccc2Cl)NS(=O)(=O)c2ccc(I)cc2)cc1 (racemic)
39 | 56 to 58.5 °C | CCC12CCC(=O)C=C1CCC2=O (single isomer, unassigned; (+))
40 | 177 to 184 °C | Cc1c(N2CC(F)C(C3(N)CCC3)C2)c(F)c(N)c2c(=O)c(C(=O)O)cn(C3CC3F)c12 (stereo unspecified)
41 | 178 to 180 °C | CC1=NN(c2c(Cl)cc(Cl)cc2Cl)C(=O)C1
42 | 145 to 147 °C | COc1ccc(C2C=C3CCN(Cc4ccccc4)CC3C(CO)C2CO)cc1 (stereo unspecified)
43 | 238 to 244 °C | O=C1C2CCC(N1c1cccs1)n1c(=O)n(-c3ccccc3)c(=O)n12 (stereo unspecified)
44 | 139 to 140 °C | c1ccc(CN2CCOC(CN3c4ccccc4CCc4ccccc43)C2)cc1 (stereo unspecified)
45 | 202 to 203 °C | CN(C1CCN(CCC(F)(F)F)CC1)S(=O)(=O)c1ccc(Nc2nccc(Nc3ccc(F)c(F)c3)n2)cc1
46 | 176 °C | CCc1sc2c(c1S(=O)(=O)c1ccc(O)cc1)CC(Cc1ccccc1Cl)NC2 (stereo unspecified)

Row | melting point | Compound
47 | 83 to 87 °C | COC(=O)C1=C(C)NC(C)=C(C(=O)OCCN2CCN(C(c3ccc(Cl)cc3)c3ccc(Cl)cc3)CC2)C1c1cccc([N+](=O)[O-])c1 (stereo unspecified)
48 | 107 to 110 °C | CC(=O)c1c(-c2cccc([N+](=O)[O-])c2)cc(C(=O)NCCN2CCOCC2)nc1C
49 | 187 °C | COc1cc(C2=C(c3cn(C)c4ccccc34)C(=O)NC2=O)cc(OC)c1OC
50 | 110 to 113 °C | CCCc1c(COc2ccc(Cc3nnn(CCCCCCc4nnn[nH]4)n3)cc2)ccc(C(C)=O)c1O
51 | 162 °C | CCOC(=O)c1cn(C)nc1Nc1ccc(C(F)(F)F)cc1N
52 | 186 to 188 °C | CC(C)(C)OC(=O)NN1CCNC1=O
53 | 94 to 95 °C | CCOC(=O)NCCOC(=O)COc1cc(Oc2ccc(C(F)(F)F)cc2Cl)ccc1[N+](=O)[O-]
54 | 267 to 269 °C | O=c1c2c(CCc3ccncc3)n[nH]c2c2cccnc2n1-c1ccccc1
55 | 100 to 102 °C | Cn1c(C(CCN2CCC(O)(c3ccccc3)CC2)c2ccc(Cl)c(Cl)c2)cc2ccccc2c1=O (stereo unspecified)
56 | 196 to 198 °C | COc1ccc(C2=NN(c3ccc(C(=O)O)cc3)C(=O)C(C)(C)C2)cc1OC
57 | 123 to 124 °C | O=S(=O)(c1ccccc1)c1ccc(/C=C/C(O)(C(F)F)C(F)F)cc1
58 | 202 to 204 °C | CC(=NC#N)N[C@@H]1c2cc(C#N)ccc2OC(C)(C)[C@H]1OS(C)(=O)=O (relative stereo)
59 | 107 to 112 °C | O=C(c1cnc2ccccc2c1)N1CCC(c2ccccc2)=N1
60 | 220 to 221 °C | c1ccc(N2CCN(Cc3nc4ccccc4[nH]3)CC2)nc1
61 | 89 to 93 °C | Cc1cccc(C=CCC(C(=O)C=Cc2ccc(Cl)cc2)c2ccccc2)c1 (stereo unspecified)
62 | 264 to 266 °C | COc1cc2cc(C(=O)O)c(C(=O)O)nc2cc1OC
63 | 91.5 to 92.5 °C | CCSc1nc(C#N)c(C#N)nc1C
64 | 122 to 126 °C | CC1(C)C(=O)C(C)(C)c2cc(CCN3CCN(c4nsc5ccccc45)CC3)ccc21
65 | 190 to 192 °C | Cc1cccc(N2Cc3ccccc3P2(=O)c2ccccc2)c1 (stereo unspecified)
66 | 101 to 104 °C | CC1(C)N=C(SCc2cccc3cccnc23)N=C1SCc1cccc2cccnc12
67 | 119 to 120 °C | N#Cc1cccc(Br)c1N
68 | 60 to 60.5 °C | CCCCCCCCCCCC(=O)N[C@H](CC(=O)c1ccc(C)cc1)C(=O)OCC

Row | Compound | melting point
69 | Clc1ccc2c(c1)C(c1ccccc1)=NCc1nnc(Br)n1-2 | 206 °C
70 | Cc1cc(Cc2cc(C)c(N)c(C)c2)cc(C)c1N | 119 to 120 °C
71 | OC(CNC1CC1)c1cccc(F)c1 (stereo unspecified) | 57.8 to 60 °C
